Results reported in US9163025B2, “Stable complexes of an alkaline earth metal salt of N5-methyl-tetrahydrofolic acid and a polyol” (CERBIOS-PHARMA SA, priority 2013, dated 2015).

Test: Accelerated stability of calcium (6S) N5-methyl-tetrahydrofolate products (HPLC related substances and assay)
Assay type: physicochemical
Conditions: 25° C. and 40% relative humidity
Protocol: Determination of related substances of calcium (6S)—N^5-methyl-(5,6,7,8)-tetrahydrofolate by HPLC method
25±3 mg of (6S)-5-methyl-tetrahydrofolic acid calcium salt calculated on dry base were placed in a 50 ml volumetric flask and added with 320 μl of acid ascorbic solution and water until the final volume was reached. The solution was transferred in a HPLC vial and the sample injected immediately.
Analysis: 10 μl of the sample solution were Injected, the chromatogram recorded (analytical wavelength 280±16 nm) and the peak response measured.
the liquid chromatograph was equipped with a Hypersil ODS column (length 250 mm, ID 4 mm, particle size 5 μm). The column was coupled with a diode array detector for the detection wavelength of 280±16 nm
Determination of assay by HPLC of calcium (6RS) and (6S) N^5-methyl-tetrahydrofolate
75-85 mg of sample were dissolved in 200 ml water within a 250 ml volumetric flask. 1 ml of the ascorbic acid solution was added and dilute to 250 ml with water. A total of three sample solutions were prepared.
The HPLC system was verified and calibrated by injecting the standard solutions. Once each of the three prepared sample solutions were injected followed by one standard solution as calibration control.
The liquid chromatograph was equipped with an analytical column such ACE 5 C18, 250 mm×2.1 mm, with particle size 5 μm.
acetonitrile 12%, phosphate buffer pH 6.5 80%, methanol+2-mercaptoethanol 8%.
column temperature: 25° C., isocratic mode, flow rate: 0.41 ml/min, injection volume: 5 μl, run time: 13.5 min, analytical wavelength: 290 nm.
The stability of the complexes according to the present invention prepared by spray-drying or lyophilization as described in examples 5 and 7 was tested in comparison with the stability of (6S)—N^5-methyl-tetrahydrofolate calcium salt alone. Preparations obtained through different technologies, such as evaporation of the solvent from the solution, as reported in examples 2, 3 and 4, were also assessed for stability. Accelarated stability experiments at 25° C. and 40% relative humidity were carried out.

For `CN1c2c(nc(N)[nH]c2=O)NC[C@@H]1CNc1ccc(C(=O)N[C@@H](CCC(=O)[O-])C(=O)[O-])cc1.[Ca+2]` [Product 5MeTHF, (6S)—N^5-methyl-(5,6,7,8)-tetrahydrofolate calcium salt], the “Decrease of 5MeTHF % content” value (4 weeks) was −2.70%, the “Increase of D2 % content” value (4 weeks) was 1.30% and the “Decrease of 5MeTHF % content” value (12 weeks) was −2.80%. For the same compound, the “Increase of D2 % content” value (12 weeks) was 1.40%, the “Decrease of 5MeTHF % content” value (24 weeks) was −5.6% and the “Increase of D2 % content” value (24 weeks) was 2.3%.
